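Step 1: Grow cells in 96-well plates. Step 2: Expose to compound for 48 hours at 5 concentrations. Step 3: Interpolate endpoints linearly; if unreached, use highest concentration. GI50 = concentration required for 50% inhibition of growth. TGI marks complete inhibition of growth.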
How the values were obtained:
Experiment in all cases: inhibition of tumour cell growth, NCI panel, 48 h
A498 renal = test system: A498 renal
OVCAR-4 ovarian = test system: OVCAR-4 ovarian
HL-60(TB) leukemia = test system: HL-60(TB) leukemia
NCI-H522 lung = test system: NCI-H522 lung
MDA-MB-435 = test system: MDA-MB-435
HOP-92 NSCLC = test system: HOP-92 NSCLC
U251 CNS = test system: U251 CNS
CAKI-1 renal = test system: CAKI-1 renal
HT29 colon = test system: HT29 colon
CCRF-CEM leukemia = test system: CCRF-CEM leukemia
KM12 colon = test system: KM12 colon
NCI-H460 lung = test system: NCI-H460 lung
NCI-H226 lung = test system: NCI-H226 lung
COLO 205 colon = test system: COLO 205 colon
NCI/ADR-RES ovarian = test system: NCI/ADR-RES ovarian
NCI-H23 lung = test system: NCI-H23 lung
HCC-2998 colon = test system: HCC-2998 colon
HCT-15 colon = test system: HCT-15 colon
TK-10 renal = test system: TK-10 renal
DU-145 prostate = test system: DU-145 prostate
OVCAR-3 ovarian = test system: OVCAR-3 ovarian
SK-OV-3 ovarian = test system: SK-OV-3 ovarian
SK-MEL-2 melanoma = test system: SK-MEL-2 melanoma
SK-MEL-5 melanoma = test system: SK-MEL-5 melanoma
T-47D breast = test system: T-47D breast
RPMI-8226 leukemia = test system: RPMI-8226 leukemia
SW-620 colon = test system: SW-620 colon

**Q.** With `COc1cc2c3c(n(C4CCNCC4)c(=O)c2cc1OC)-c1cc2c(cc1C3=O)OCO2` as the molecule, how does the GI50 (A498 renal) read?
**A.** 619 nM

**Q.** What about the TGI (A498 renal) of the same molecule?
**A.** 3320 nM

**Q.** And the GI50 (OVCAR-4 ovarian)?
**A.** 1420 nM

**Q.** What about the TGI (OVCAR-4 ovarian) of the same molecule?
**A.** 2950 nM

**Q.** And the GI50 (HL-60(TB) leukemia)?
**A.** 364 nM

**Q.** What about the TGI (HL-60(TB) leukemia) of the same molecule?
**A.** 1490 nM

**Q.** What about the GI50 (NCI-H522 lung) of the same molecule?
**A.** 296 nM

**Q.** What about the TGI (NCI-H522 lung) of the same molecule?
**A.** 2990 nM

**Q.** And the GI50 (MDA-MB-435)?
**A.** 1190 nM

**Q.** What about the TGI (MDA-MB-435) of the same molecule?
**A.** 2600 nM

**Q.** And the GI50 (HOP-92 NSCLC)?
**A.** 2450 nM

**Q.** What about the TGI (HOP-92 NSCLC) of the same molecule?
**A.** 28300 nM

**Q.** What about the GI50 (U251 CNS) of the same molecule?
**A.** 279 nM

**Q.** And the TGI (U251 CNS)?
**A.** 2010 nM

**Q.** And the GI50 (CAKI-1 renal)?
**A.** 295 nM

**Q.** What about the TGI (CAKI-1 renal) of the same molecule?
**A.** 1600 nM

**Q.** What about the GI50 (HT29 colon) of the same molecule?
**A.** 264 nM

**Q.** What about the TGI (HT29 colon) of the same molecule?
**A.** 2330 nM

**Q.** What about the GI50 (CCRF-CEM leukemia) of the same molecule?
**A.** 287 nM

**Q.** What about the TGI (CCRF-CEM leukemia) of the same molecule?
**A.** 2250 nM

**Q.** And the GI50 (KM12 colon)?
**A.** 1110 nM

**Q.** And the TGI (KM12 colon)?
**A.** 2530 nM

**Q.** And the GI50 (NCI-H460 lung)?
**A.** 119 nM

**Q.** What about the TGI (NCI-H460 lung) of the same molecule?
**A.** 276 nM

**Q.** What about the GI50 (NCI-H226 lung) of the same molecule?
**A.** 635 nM

**Q.** What about the TGI (NCI-H226 lung) of the same molecule?
**A.** 2940 nM

**Q.** What about the GI50 (COLO 205 colon) of the same molecule?
**A.** 986 nM

**Q.** And the TGI (COLO 205 colon)?
**A.** 2330 nM

**Q.** And the GI50 (NCI/ADR-RES ovarian)?
**A.** 823 nM

**Q.** And the TGI (NCI/ADR-RES ovarian)?
**A.** 4000 nM

**Q.** And the GI50 (NCI-H23 lung)?
**A.** 538 nM

**Q.** What about the TGI (NCI-H23 lung) of the same molecule?
**A.** 2390 nM

**Q.** And the GI50 (HCC-2998 colon)?
**A.** 1340 nM

**Q.** And the TGI (HCC-2998 colon)?
**A.** 2710 nM

**Q.** What about the GI50 (HCT-15 colon) of the same molecule?
**A.** 396 nM

**Q.** What about the TGI (HCT-15 colon) of the same molecule?
**A.** 1770 nM

**Q.** And the GI50 (TK-10 renal)?
**A.** 1800 nM

**Q.** What about the TGI (TK-10 renal) of the same molecule?
**A.** 3650 nM

**Q.** And the GI50 (DU-145 prostate)?
**A.** 423 nM

**Q.** What about the TGI (DU-145 prostate) of the same molecule?
**A.** 1550 nM

**Q.** And the GI50 (OVCAR-3 ovarian)?
**A.** 1200 nM

**Q.** What about the TGI (OVCAR-3 ovarian) of the same molecule?
**A.** 2600 nM

**Q.** What about the GI50 (SK-OV-3 ovarian) of the same molecule?
**A.** 402 nM

**Q.** What about the TGI (SK-OV-3 ovarian) of the same molecule?
**A.** 1750 nM

**Q.** What about the GI50 (SK-MEL-2 melanoma) of the same molecule?
**A.** 20100 nM

**Q.** And the TGI (SK-MEL-2 melanoma)?
**A.** > 100000 nM

**Q.** What about the GI50 (SK-MEL-5 melanoma) of the same molecule?
**A.** 322 nM

**Q.** And the TGI (SK-MEL-5 melanoma)?
**A.** 1460 nM

**Q.** And the GI50 (T-47D breast)?
**A.** 395 nM

**Q.** And the TGI (T-47D breast)?
**A.** 2380 nM

**Q.** What about the GI50 (RPMI-8226 leukemia) of the same molecule?
**A.** 773 nM

**Q.** And the TGI (RPMI-8226 leukemia)?
**A.** 3680 nM

**Q.** And the GI50 (SW-620 colon)?
**A.** 225 nM

**Q.** What about the TGI (SW-620 colon) of the same molecule?
**A.** 1950 nM

From PubChem BioAssay (NCI)
